Measured values taken from US7605272B2, “IGF-1R inhibitor” (Kyowa Hakko Kirin Co., Ltd., priority 2005, dated 2009).
Where a name gives a salt, the structure may show the parent alone. Read-outs that look alike come from different tables or passages of the source.

Assays:
IGF-1R = target: T1, IGF-1R (Homo sapiens, UniProt P08069); assay: IGF-1R inhibitory activity (kinase reaction, time-resolved fluoroimmunoassay); type: biochemical; conditions: IGF-1R active recombinant enzyme, test compound 10 μmol/L
T1 construct: purchased Upstate Co. 14-465
T1 sequence (P08069 959-1367 limits assumed): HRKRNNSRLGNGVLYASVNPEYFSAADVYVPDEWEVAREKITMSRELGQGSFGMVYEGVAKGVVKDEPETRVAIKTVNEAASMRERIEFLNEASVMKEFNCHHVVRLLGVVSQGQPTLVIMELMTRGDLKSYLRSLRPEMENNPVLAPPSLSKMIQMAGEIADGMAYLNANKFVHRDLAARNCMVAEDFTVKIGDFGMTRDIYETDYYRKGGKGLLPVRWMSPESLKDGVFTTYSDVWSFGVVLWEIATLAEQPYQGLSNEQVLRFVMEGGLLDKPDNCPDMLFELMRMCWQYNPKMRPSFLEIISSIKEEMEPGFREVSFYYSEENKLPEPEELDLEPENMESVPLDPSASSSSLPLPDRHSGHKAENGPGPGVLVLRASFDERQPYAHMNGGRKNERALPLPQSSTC
Method in brief: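 Compounds were tested at a single 10 μmol/L concentration. Each was incubated with recombinant IGF-1R (200 μg/L), 10 mmol/L ATP, MgCl2/MnCl2 and Na3VO4 (pH 7.5) on immobilized poly(Glu-Tyr) peptide for 30 min at 24° C. Eu-anti-phosphotyrosine time-resolved fluorescence (340/615 nm) gave relative activity against no-compound and no-enzyme wells, reported as % inhibition.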

Colo205 = assay: Cytostatic activity on human colon cancer cell line Colo205 (WST-1); type: cell-based; conditions: for inhibition at 10 µM: Homo sapiens, COLO 205, 72 h; for cytostatic rate (%) Colo205 (10 μmol/L): 72 hours
Procedure: (§1) The cytostatic rates of the test compound on the human pancreatic cancer cell line AsPC-1 and the human colon cancer cell line Colo205 were determined in the following manner.
(§2) For culturing AsPC-1, RPMI 1640 medium containing 20% fetal bovine serum, 1 mmol/L sodium pyruvate, 10 mmol/L HEPES, 4.5 g/L glucose and penicillin/streptomycin (1:1). The Colo205 cell was cultured using RPMI 1640 medium containing 10% fetal bovine serum, 1 mmol/L sodium pyruvate, 10 mmol/L HEPES, 4.5 g/L glucose and penicillin/streptomycin (1:1) was used. Each 80 μL of the AsPC-1 cell having a concentration of 5×10^4 cells/mL (or the Colo205 having a concentration of 5×10^4 cells/mL) was inoculated to wells of a TC MICROWELL 96F plate (Nalge Nunc International, Catalog No. 167008) and was cultured in a 5% carbon dioxide gas incubator at 37° C. for 24 hours. Each 20 μL of a solution of the test compound in DMSO which was prepared to make the final concentration to 1 μmol/L or 10 μmol/L, was added to each well. Each 20 μL of DMSO was added to the control well and the blank well to a final concentration of 0.1%. After adding the test compound, the cell was incubated in a 5% carbon dioxide gas incubator at 37° C. for 72 hours except for the blank well. After adding 20 μL of WST-1 reagent which was diluted to 50% by RPMI medium to each well, the cells were further incubated at 37° C. for 2 hours. Then, the absorbances at 450 nm (reference wavelength: 690 nm) were determined with a microplate spectrophotometer SPECTRA max 340PC. The cytostatic rate (%) was then determined in the similar manner to the above multiple myeloma cell lines.

NCI-H929 = assay: Cytostatic activity on human multiple myeloma cell line NCI-H929 (WST-1); type: cell-based; conditions: for inhibition at 1 µM: Homo sapiens, NCI-H929, 72 h, read-out: cytostatic rate (%) H929 (1 μmol/L)
Method in brief: (§3)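 Cells pre-cultured 24 h at 37 °C, 5% CO2, then exposed 72 h to compound at final 1 or 10 μmol/L (0.1% DMSO). WST-1 added for 2 h, absorbance at 450 nm (ref 690 nm). Cytostatic rate = 100 minus relative growth, with DMSO control as 100% and blank as 0%.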

KMS-11 = assay: Cytostatic activity on human multiple myeloma cell line KMS-11 (WST-1); type: cell-based; conditions: for inhibition at 1 µM: Homo sapiens, KMS-11, 72 h, read-out: cytostatic rate (%) KMS-11 (1 μmol/L)
Method in brief: as §3

AsPC-1 = assay: Cytostatic activity on human pancreatic cancer cell line AsPC-1 (WST-1); type: cell-based; conditions: for inhibition at 10 µM: Homo sapiens, ASPC1, 72 h; for cytostatic rate (%) AsPC-1 (10 μmol/L): 72 hours
Procedure: as §1, §2

[1] = 10 μmol/L, read-out: cytostatic rate (%) Colo205 (10 μmol/L)
[2] = 10 μmol/L, read-out: cytostatic rate (%) AsPC-1 (10 μmol/L)

## Cc1ccsc1C(=O)Nc1cc(CN2CCN(CCO)CC2)ccc1/C=C/c1n[nH]c2ccccc12 [Compound 239, (E)-N-{5-[4-(2-hydroxyethyl)piperazin-1-ylmethyl]-2-[2-(1H-indazol-3-yl)vinyl]phenyl}-3-methylthiophene-2-carboxamide]
IGF-1R
  inhibition at 10 µM: 101%
Colo205; [1]
  inhibition at 10 µM: 121%
NCI-H929; 1 μmol/L, 72 hours
  inhibition at 1 µM: 115%
KMS-11; 1 μmol/L, 72 hours
  inhibition at 1 µM: 152%
AsPC-1; [2]
  inhibition at 10 µM: 102%

## CCN(CC)CCOc1ccc(/C=C/c2n[nH]c3ccccc23)c(NC(=O)c2sccc2C)c1OC [Compound 263, (E)-N-{3-(2-diethylaminoethoxy)-6-[2-(1H-indazol-3-yl)vinyl]-2-methoxymephenyl}-3-methylthiophene-2-carboxamide]
IGF-1R
  inhibitory activity (%) at 10 μmol/L: 100.9%
Colo205; 10 μmol/L
  cytostatic rate (%) Colo205 (10 μmol/L): 120.5%
NCI-H929; 1 μmol/L, 72 hours
  cytostatic rate (%) H929 (1 μmol/L): 116.0%
KMS-11; 1 μmol/L, 72 hours
  cytostatic rate (%) KMS-11 (1 μmol/L): 126.2%
AsPC-1; 10 μmol/L
  cytostatic rate (%) AsPC-1 (10 μmol/L): 103.4%

## Nc1cccc2c1C(=O)N(c1cc(C(=O)N3CCOCC3)ccc1/C=C/c1n[nH]c3ccccc13)C2=O [Compound 288, (E)-4-amino-N-{2-[2-(1H-indazol-3-yl)vinyl]-5-(morpholin-4-ylcarbonyl)phenyl}isoindole-1,3-dione]
IGF-1R
  inhibition at 10 µM: 97.9%
Colo205; [1]
  inhibition at 10 µM: 120%
NCI-H929; 1 μmol/L, 72 hours
  inhibition at 1 µM: 118%
KMS-11; 1 μmol/L, 72 hours
  inhibition at 1 µM: 109%
AsPC-1; [2]
  inhibition at 10 µM: 94.5%

## COCCN(CCN(C)C)C(=O)c1ccc(/C=C/c2n[nH]c3ccccc23)c(NC(=O)c2sccc2C)c1 [Compound 241, (E)-N-{5-[N-(2-dimethylaminoethyl)-N-(2-methoxyethyl)carbamoyl]-2-[2-(1H-indazol-3-yl)vinyl]phenyl}-3-methylthiophene-2-carboxamide hydrochloride]
IGF-1R
  inhibition at 10 µM: 101%
Colo205; [1]
  inhibition at 10 µM: 121%
NCI-H929; 1 μmol/L, 72 hours
  inhibition at 1 µM: 112%
KMS-11; 1 μmol/L, 72 hours
  inhibition at 1 µM: 118%
AsPC-1; [2]
  inhibition at 10 µM: 104%

## Cc1ccsc1C(=O)Nc1cc(CN2CCN(CC(C)(C)O)CC2)ccc1/C=C/c1n[nH]c2ccccc12 [Compound 312, (E)-N-{5-[4-(2-hydroxy-2-methylpropyl)piperazin-1-ylmethyl]-2-[2-(1H-indazol-3-yl)vinyl]phenyl}-3-methylthiophene-2-carboxamide]
IGF-1R
  inhibition at 10 µM: 105%
Colo205; Colo205 cells, test compound 10 μmol/L, WST-1, read-out: cytostatic rate (%) Colo205 (10 μmol/L)
  inhibition at 10 µM: 120%
NCI-H929; NCI-H929 cells, test compound 1 μmol/L, WST-1
  inhibition at 1 µM: 115%
KMS-11; KMS-11 cells, test compound 1 μmol/L, WST-1
  inhibition at 1 µM: 108%
AsPC-1; AsPC-1 cells, test compound 10 μmol/L, WST-1, read-out: cytostatic rate (%) AsPC-1 (10 μmol/L)
  inhibition at 10 µM: 101%

## CN(C(=O)c1ccc[nH]1)c1cc(C(=O)N2CCOCC2)ccc1/C=C/c1n[nH]c2ccccc12 [Compound 217, (E)-N-{2-[2-(1H-indazol-3-yl)vinyl]-5-(morpholin-4-ylcarbonyl)phenyl}-N-methylpyrrole-2-carboxamide hydrochloride]
IGF-1R
  inhibition at 10 µM: 96.6%
Colo205; [1]
  inhibition at 10 µM: 122%
NCI-H929; 1 μmol/L, 72 hours
  inhibition at 1 µM: 113%
KMS-11; 1 μmol/L, 72 hours
  inhibition at 1 µM: 128%
AsPC-1; [2]
  inhibition at 10 µM: 91.9%

## Cc1ccsc1C(=O)Nc1cc(CN2CCNCC2)ccc1/C=C/c1n[nH]c2ccccc12 [Compound 242]
IGF-1R
  inhibitory activity (%) at 10 μmol/L: 102.1%
Colo205; 10 μmol/L
  cytostatic rate (%) Colo205 (10 μmol/L): 119.7%
NCI-H929; 1 μmol/L, 72 hours
  cytostatic rate (%) H929 (1 μmol/L): 111.1%
KMS-11; 1 μmol/L, 72 hours
  cytostatic rate (%) KMS-11 (1 μmol/L): 106.8%
AsPC-1; 10 μmol/L
  cytostatic rate (%) AsPC-1 (10 μmol/L): 87.1%
